Source: ChEMBL document CHEMBL1132867, “A rationally designed anticancer drug targeting a unique binding cavity of tubulin” (Bioorg Med Chem Lett, 2000)

Tests used:
U-87 MG = test: Anti-proliferative activity of compound against human glioblastoma tumor cell line U87 by standard MTT assay; assay type: functional, cell-based, U-87MG ATCC
MDA-MB-231 = test: Anti-proliferative activity of compound against human breast cancer MDA-MB-231 by standard MTT assay; assay type: functional, cell-based
NALM-6 = test: Anti-proliferative activity of compound against human leukemia NALM-6 by standard MTT assay; assay type: functional, cell-based
PC-3 = test: Anti-proliferative activity of compound against human prostate cancer PC-3 by standard MTT assay; assay type: functional, cell-based; settings: PC-3, Prostate gland
SQ20B = test: Anti-proliferative activity of compound against human head/neck cancer SQ20B by standard MTT assay; assay type: functional, cell-based

SMILES | IC50 (U-87 MG) [µM] | IC50 (MDA-MB-231) [µM] | IC50 (NALM-6) [µM] | IC50 (PC-3) [µM] | IC50 (SQ20B) [µM]
OC[C@H]1CC[C@H]([C@@H](O)CO)O1 [WHI-259] | > 250 | > 250 | > 250 | > 250 | > 250
C[C@@H](O)[C@H]1CC[C@H](CO)O1 [WHI-260] | > 250 | > 250 | > 250 | > 250 | > 250
CCCCCCCCCCCC[C@@H](O)[C@H]1CC[C@H](CO)O1 [WHI-261] | 107 | 7 | 49 | 171 | 140
O=S(=O)(CC[C@@H](O)[C@H]1CC[C@H](COCc2ccccc2)O1)c1ccccc1 [WHI-262] | > 250 | > 250 | > 250 | > 250 | > 250
